According to patent US20230172961A1 (priority 2020, published 2023):

Molecular target: SARS-CoV-2 exonuclease complex (nsp14 and nsp10) (Severe acute respiratory syndrome coronavirus 2, UniProt P0DTD1)
Test: Exonuclease resistance of RNA terminated with nucleotide analogues, MALDI-TOF MS
Assay type: biochemical
Conditions: for cleavage of extended RNA after 5 min exonuclease treatment / cleavage of extended RNA after 30 min exonuclease treatment: RNA extended by SARS-CoV-2 RdRp (FIGS. 48, 49); for relative resistance to excision by the exonuclease: analogue at the 3′ terminus of RNA, compared with other 3′ termini

Substance	cleavage of extended RNA after 5 min exonuclease treatment	cleavage of extended RNA after 5 min exonuclease treatment (listed as SFV)	cleavage of extended RNA after 30 min exonuclease treatment	cleavage of extended RNA after 30 min exonuclease treatment (listed as SFV)	relative resistance to excision by the exonuclease	relative resistance to excision by the exonuclease (listed as 2′-O-Me-CTP)
Sofosbuvir	minimal appearance of cleavage products	some reduction in the height	significant amount of the intact Sofosbuvir-RNA remaining	still some SFV extended RNA remaining	more protected from cleavage	
2′-O-methyl CMP					resistant to excision	much more full-length RNA remaining
UMP	substantial cleavage		completely disappears			
